Data published in US12398120B2, “Substituted hydantoinamides as ADAMTS7 antagonists” (BAYER AKTIENGESELLSCHAFT, priority 2019, dated 2025).
pIC50: −log10 of the molar value.

target: ADAMTS4 (Homo sapiens (Human), UniProt O75173); assay: Selectivity assay for ADAMTS-7 modulators: ADAMTS4 (FRET substrate); format: biochemical; conditions: ADAMTS4 (R&D 4307-AD) 50 nM, substrate Dabcyl-EEVKAKVQPY-Glu(Edans)-NH2 1 μM, 120 min, 32° C.
Procedure: 1 μl test compound solution (dissolved in DMSO, at the corresponding concentration) or pure DMSO as a control was added per well. The enzymatic reaction was initiated by addition of 25 μl of the respective concentration of the respective FRET substrate (see table 2 below) in reaction buffer.
The increase of fluorescence intensity was measured in appropriate fluorescence plate reader (e.g. TECAN Ultra) using the respective wavelengths for excitation and emission. IC50 values were calculated from percentage of inhibition of enzyme activity as a function of test compound concentration.

Sequence of ADAMTS4 (O75173 213-685): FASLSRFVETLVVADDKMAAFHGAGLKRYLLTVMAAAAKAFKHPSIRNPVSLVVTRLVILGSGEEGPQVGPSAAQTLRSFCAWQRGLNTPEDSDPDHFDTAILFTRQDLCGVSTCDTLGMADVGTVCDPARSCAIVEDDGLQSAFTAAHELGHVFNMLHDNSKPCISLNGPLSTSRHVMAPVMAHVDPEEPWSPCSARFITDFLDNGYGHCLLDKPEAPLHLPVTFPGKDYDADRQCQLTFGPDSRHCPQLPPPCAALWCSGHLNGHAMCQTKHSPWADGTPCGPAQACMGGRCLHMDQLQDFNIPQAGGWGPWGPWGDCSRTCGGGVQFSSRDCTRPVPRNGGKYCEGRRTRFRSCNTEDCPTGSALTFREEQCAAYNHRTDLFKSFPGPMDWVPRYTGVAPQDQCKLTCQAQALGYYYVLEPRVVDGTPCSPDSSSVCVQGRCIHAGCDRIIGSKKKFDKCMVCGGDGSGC

Point of comparison: `O=C1NC(=O)[C@](CNC(=O)c2ccc(C(F)(F)F)cc2-c2ccc(Cl)cc2)(C2CC2)N1` [Example 89, 4′-Chloro-N-{[(4R)-4-Cyclopropyl-2,5-Dioxoimidazolidin-4-Yl]Methyl}-5-(Trifluoromethyl)[1,1′-Biphenyl]-2-Carboxamide], pIC50 5.12. Against it:
- Cc1cc(C2(CNC(=O)c3ccc(F)cc3-c3ccc(C(F)(F)F)cc3)NC(=O)NC2=O)n(C)n1 (racemic) [Example 276, Rac-N-{[4-(1,3-Dimethyl-1H-Pyrazol-5-Yl)-2,5-Dioxoimidazolidin-4-Yl]Methyl}-5-Fluoro-4′-(Trifluoromethyl)[Biphenyl]-2-Carboxamide] — 0.30 log units lower, 4.82
- O=C1NC(=O)C(CNC(=O)c2ccccc2-c2ccc(Cl)cc2)(C2(F)CC2)N1 (single isomer, unassigned; ent-4) [Example 251, Ent-4′-Chloro-N-{[4-(1-Fluorocyclopropyl)-2,5-Dioxoimidazolidin-4-Yl]Methyl}[Biphenyl]-2-Carboxamide] — within 0.2 log units, 4.96
- Cc1nocc1C1(CNC(=O)c2ccccc2-c2ccc(C(F)(F)F)cc2)NC(=O)NC1=O (stereo not drawn) [Example 68, Ent-N-{[4-(3-Methyl-1,2-Oxazol-4-Yl)-2,5-Dioxoimidazolidin-4-Yl]Methyl}-4′-(Trifluoromethyl)[Biphenyl]-2-Carboxamide] — within 0.2 log units, 4.96
- Cc1ncsc1C1(CNC(=O)c2ccccc2-c2ccc(Cl)cc2)NC(=O)NC1=O (single isomer, unassigned; ent-4) [Example 9, Ent-4′-Chloro-N-{[4-(4-Methyl-1,3-Thiazol-5-Yl)-2,5-Dioxoimidazolidin-4-Yl]Methyl}[Biphenyl]-2-Carboxamide] — 0.20 log units higher, 5.32
- O=C1NC(=O)C(CNC(=O)c2ccc(F)cc2-c2ccc(C(F)(F)F)cc2)(C2(Cl)CC2)N1 (racemic) [Example 282, Rac-N-{[4-(1-Chlorocyclopropyl)-2,5-Dioxoimidazolidin-4-Yl]Methyl}-5-Fluoro-4′-(Trifluoromethyl)[Biphenyl]-2-Carboxamide] — 0.32 log units lower, 4.80
- CC(C)C1(CNC(=O)c2cc(F)ccc2-c2ccc(C(F)(F)F)cc2)NC(=O)NC1=O (single isomer, unassigned; ent-4) [Example 212, Ent-4-Fluoro-N-[(4-Isopropyl-2,5-Dioxoimidazolidin-4-Yl)Methyl]-4′-(Trifluoromethyl)[Biphenyl]-2-Carboxamide] — 0.23 log units lower, 4.89
- Cn1nccc1C1(CNC(=O)c2c(F)cccc2-c2ccc(C(F)(F)F)cc2)NC(=O)NC1=O (single isomer, unassigned; ent-3) [Example 186, Ent-3-Fluoro-N-{[4-(1-Methyl-1H-Pyrazol-5-Yl)-2,5-Dioxoimidazolidin-4-Yl]Methyl}-4′-(Trifluoromethyl)[Biphenyl]-2-Carboxamide] — 0.50 log units lower, 4.62
- O=C1NC(=O)[C@](CNC(=O)c2ccccc2-c2ccc(Cl)c(Cl)c2)(C2CC2)N1 [Example 227, 3′,4′-Dichloro-N-{[(4R)-4-Cyclopropyl-2,5-Dioxoimidazolidin-4-Yl]Methyl}[1,1′-Biphenyl]-2-Carboxamide] — 0.73 log units lower, 4.39
- O=C1NC(=O)[C@](CNC(=O)c2ccccc2-c2ccccc2)(C2CC2)N1 [Example 131, N-{[(4R)-4-Cyclopropyl-2,5-Dioxoimidazolidin-4-Yl]Methyl}[Biphenyl]-2-Carboxamide] — within 0.2 log units, 5.06
- Cc1c(C2(CNC(=O)c3ccc(Cl)cc3-c3ccc(C(F)(F)F)cc3)NC(=O)NC2=O)cnn1C (single isomer, unassigned; ent-5) [Example 79, Ent-5-Chloro-N-{[4-(1,5-Dimethyl-1H-Pyrazol-4-Yl)-2,5-Dioxoimidazolidin-4-Yl]Methyl}-4′-(Trifluoromethyl)[Biphenyl]-2-Carboxamide] — 0.56 log units higher, 5.68
- O=C1NC(=O)[C@](CNC(=O)c2cc(F)ccc2-c2ccc(C3CC3(F)F)cc2)(C2CC2)N1 (stereo partly drawn) [Example 140, N-{[(4R)-4-Cyclopropyl-2,5-Dioxoimidazolidin-4-Yl]Methyl}-4′-(2,2-Difluorocyclopropyl)-4-Fluoro[1,1′-Biphenyl]-2-Carboxamide] — within 0.2 log units, 4.96
- O=C1NC(=O)C(CNC(=O)c2ccccc2-c2ccc(C(F)(F)F)cc2)(c2ncsc2C2CC2)N1 (stereo not drawn) [Example 271, Ent-N-{[4-(5-Cyclopropyl-1,3-Thiazol-4-Yl)-2,5-Dioxoimidazolidin-4-Yl]Methyl}-4′-(Trifluoromethyl)[Biphenyl]-2-Carboxamide] — 0.45 log units higher, 5.57
- CC(C)(C)C1(CNC(=O)c2ccccc2-c2ccc(C(F)(F)F)cc2)NC(=O)NC1=O (racemic) [Example 25, Rac-N-[(4-Tert-Butyl-2,5-Dioxoimidazolidin-4-Yl)Methyl]-4′-(Trifluoromethyl)[Biphenyl]-2-Carboxamide] — lower, < 4.30
- Cc1c(C2(CNC(=O)c3ccc(F)c(F)c3-c3ccc(C(F)(F)F)cc3)NC(=O)NC2=O)cnn1C (racemic) [Example 316, Rac-N-{[4-(1,5-Dimethyl-1H-Pyrazol-4-Yl)-2,5-Dioxoimidazolidin-4-Yl]Methyl}-5,6-Difluoro-4′-(Trifluoromethyl)[Biphenyl]-2-Carboxamide] — 0.20 log units lower, 4.92
- Cn1nccc1C1(CNC(=O)c2ccc(Cl)cc2-c2ccc(Cl)cc2)NC(=O)NC1=O (single isomer, unassigned; ent-4) [Example 193, Ent-4′,5-Dichloro-N-{[4-(1-Methyl-1H-Pyrazol-5-Yl)-2,5-Dioxoimidazolidin-4-Yl]Methyl}[Biphenyl]-2-Carboxamide] — 0.68 log units higher, 5.80
- O=C1NC(=O)C(CNC(=O)c2ccccc2-c2ccc(C(F)(F)F)cc2)(C2CCOCC2)N1 (racemic) [Example 29, Rac-N-{[2,5-Dioxo-4-(Tetrahydro-2H-Pyran-4-Yl)Imidazolidin-4-Yl]Methyl}-4′-(Trifluoromethyl)[Biphenyl]-2-Carboxamide] — lower, < 4.30
- CC(C)C1(CNC(=O)c2cccc(F)c2-c2ccc(C(F)(F)F)cc2)NC(=O)NC1=O (single isomer, unassigned; ent-6) [Example 210, Ent-6-Fluoro-N-[(4-Isopropyl-2,5-Dioxoimidazolidin-4-Yl)Methyl]-4′-(Trifluoromethyl)[Biphenyl]-2-Carboxamide] — 0.48 log units lower, 4.64
- O=C1NC(=O)C(CNC(=O)c2ccc(F)cc2-c2ccc(C(F)(F)F)cc2)(c2cscn2)N1 (racemic) [Example 198, Rac-N-{[2,5-Dioxo-4-(1,3-Thiazol-4-Yl)Imidazolidin-4-Yl]Methyl}-5-Fluoro-4′-(Trifluoromethyl)[Biphenyl]-2-Carboxamide] — 0.71 log units lower, 4.41
- Cc1scnc1C1(CNC(=O)c2cc(F)ccc2-c2ccc(C(F)(F)F)cc2)NC(=O)NC1=O (racemic) [Example 165, Rac-4-Fluoro-N-{[4-(5-Methyl-1,3-Thiazol-4-Yl)-2,5-Dioxoimidazolidin-4-Yl]Methyl}-4′-(Trifluoromethyl)[Biphenyl]-2-Carboxamide] — within 0.2 log units, 5.18
- O=C1NC(=O)[C@](CNC(=O)c2ccc(C(F)(F)F)cc2-c2ccc(C(F)(F)F)cc2)(C2CC2)N1 [Example 117, N-{[(4R)-4-Cyclopropyl-2,5-Dioxoimidazolidin-4-Yl]Methyl}-4′,5-Bis(Trifluoromethyl)[Biphenyl]-2-Carboxamide] — 0.91 log units lower, 4.21
- CCc1ccc(-c2ccccc2C(=O)NC[C@@]2(C3CC3)NC(=O)NC2=O)cc1 [Example 106, N-{[(4R)-4-Cyclopropyl-2,5-Dioxoimidazolidin-4-Yl]Methyl}-4′-Ethyl[Biphenyl]-2-Carboxamide] — within 0.2 log units, 5.27
